Marks after values point to notes of the source that are not given here.
Assays:
Type in all cases: in vivo
[1] = system: intestinal microbiota of the stressed mice; experiment: Composition of the fecal microbiota by analysis of the 16S rRNA; settings: before vs after treatment, relative to placebo group
Description: The composition of the microbiota of the animals was analyzed in order to determine the influence of the formula on the bacterial composition of the fecal microbiota of the stressed mice and to compare it with the influence of the drug or of the placebo.
The animals' feces were sampled in order for a DNA extraction to be performed (Zymo Research based kits). The V3-V4 regions of the 16S rRNA gene are amplified and sequencing is performed on an ILLUMINA MiSeq system using the 2*250 bp mode. Sequence analysis is performed after correction using SPAdes ([…]) and regrouping is performed using PEAR (Zhang J. et al. Bioinformatics 2014; 30(5): 614-20). The OTUs (Operational Taxonomic Units) are identified with the Vsearch tool (Rognes T. et al. Peer J., 2016; 4: e2584), the taxonomic classification arising therefrom was performed by means of the RDP (Ribosomal Database Project) database.
The majority of the diversity studies based on 16S rDNA define the OTUs as being sets of sequences having at least 97% identity with each other. The OTUs are, in point of fact, the unit for measuring the specific richness in microbial ecology.
The statistical analyses were performed using the R program (Team RDC. R: A Language and Environment for Statistical Computing. 2012, Austria: R Foundation for Statistical Computing) and various packets (Ade4, Vegan). […]

[2] = system: 6-month-old stressed mice (UCMS); experiment: Open field test (anxiety behavior) in UCMS-stressed mice; settings: induced model (UCMS) mice, n = 12, after 21 days of daily oral gastric intubation (glutamine 24 mg, curcuma extract 1.2 mg, L. rhamnosus GG 0.120 mg per mouse); clomipramine 10 mg/kg intraperitoneal; 5 min session
Description: The solutions were administered orally by gastric intubation to mice (1 tube-feed per day).
The preparation of the solutions is performed extemporaneously and the administration is performed in the morning. During the behavioral sessions, the solutions are administered one hour before the start of the session. The gastric incubation always takes place in a different room from the one in which the behavioral test is performed.
In order to evaluate the results obtained with the solutions, one group of mice received a parenteral administration of a tricyclic antidepressant (clomipramine). The mice were divided into independent groups according to the following treatments:
For each group, the administration of the various solutions lasts 21 consecutive days (3 weeks). The behavioral tests are performed 4 weeks after induction of the model (“elevated plus maze” and “tail suspension”) and 3 weeks after the daily intubations (“open field” and “forced swim”).
The open field test is a circular arena (ø 1 m) surrounded by an opaque wall 25 cm tall placed in a room with uniform lighting of 70 lux. The mice are placed facing the wall at the periphery of the arena and can explore freely for 5 minutes. The area of the open field is practically divided into a peripheral zone (12 cm wide) and a central zone (the remaining area of the arena). The time (in seconds) spent in the central zone is automatically noted by videotracking. The more time a mouse spends in the central zone, the less anxious it is.
The anxiety behavior was evaluated by means of the open field test. The mean time spent by the mice at the center of the apparatus is measured.

[3] = system: 6-month-old stressed mice (UCMS); experiment: Forced swim test (Porsolt; depressive behavior) in UCMS-stressed mice
Description: The solutions were administered orally by gastric intubation to mice (1 tube-feed per day). The preparation of the solutions is performed extemporaneously and the administration is performed in the morning. During the behavioral sessions, the solutions are administered one hour before the start of the session. The gastric incubation always takes place in a different room from the one in which the behavioral test is performed. […] The mice were divided into independent groups according to the following treatments: For each group, the administration of the various solutions lasts 21 consecutive days (3 weeks). The behavioral tests are performed 4 weeks after induction of the model (“elevated plus maze” and “tail suspension”) and 3 weeks after the daily intubations (“open field” and “forced swim”). The forced swim test (Porsolt) is a test commonly used for evaluating depressive behavior in mice. This test is based on behavioral despair. […] An animal displaying depressive behaviour will spend more time immobile than the non-depressive control mouse. After the session, the animal is dried and placed under warm light. Three parameters for evaluating the depressive behaviour are noted: the time spent swimming, the time spent climbing and the time spent immobile for each animal and also their respective percentage.

[4] = induced model (UCMS) mice, n = 12, after 21 days of daily oral gastric intubation, clomipramine 10 mg/kg intraperitoneal, 6 min session

Molecule | Beta-diversity of the intestinal microbiota (PCoA), change of microbiotal profile, in words [1] | Open field test Mean (seconds): time spent in the central zone [2] [s] | Forced swim test swimming time, effect in words ([3]; compared with the other groups, 21 days treatment) | Forced swim test Climbing (dry) [3, 4] | Forced swim test Immobility (dry) [3, 4] | Forced swim test Swimming (dry) [3, 4] [s]
CN(C)CCCN1c2ccccc2CCc2ccc(Cl)cc21 [Clomipramine, reference compound] | would stabilize the dysbiosis induced by the 4 weeks of stress relative to the placebo group | 56.8 | spending more time swimming when compared with the other groups | – | – | –
Lactobacillus rhamnosus GG | – | 41.6 | – | 113.5* s | 106.8* s | 139.8
NC(=O)CC[C@H](N)C(=O)O [Glutamine] | – | 42.9 | – | – | – | –

From patent US20220249591A1, “COMPOSITION FOR THE TREATMENT OF EMOTIONAL DISORDERS” (priority 2019, published 2022)
